Source: the supplement of paper PMC11208160

Experiment: recombinant UMI read abundance after kanamycin selection (control-corrected) (log10(CPM+1)); higher = more efficient recombination; extreme values may be limits of the assay; sequences stand for … in AGTGCAGAGAAAATCGGCCAGTTTTCTCTGCCTGCAGTCCGCATGCCGTGGGACCCCTTGGGTTCTAACCTGTTGCCTAGATTTATGCAGCGGACTGCCTTTCTCCCAAAGTGATAAACCGG…AGGTTGGTTTCACT; site = the 11-nt donor
In short: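 After plating on IPTG (0.07 mM) plus kanamycin, or unselected, in two replicates, recombinant UMIs were PCR-amplified across the donor–target junction and sequenced. The cells were Escherichia coli co-electroporated with a UMI-tagged donor and donor-binding-loop pair library and a target plasmid with a fixed target and T7-inducible IS621 bridge recombinase. Values are log10(CPM+1), with CPM averaged over replicates and scaled by control-derived factors.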
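Note: IS621 bridge recombinase in Escherichia coli cells against a fixed T5 target plasmid.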

Sequence | recombinant UMI read abundance (log10)
GCGAAGGCATGGACCGGTTTTCCCGGTAATCCGTATTTGGG (site GCGAAGGCTCC) | 0.562
GCGAAGGCATGGACCGGTTTTCCCGGTAATCCGTATTTGGG (site GCGAAGTCTCC) | 0.779
GCGAATACATGGACCGGTTTTCCCGGTAATCCGTATTTGCT (site GCGAAAACTAG) | 0
GCGAATACATGGACCGGTTTTCCCGGTAATCCGTATTTGCT (site GCGAACACTAG) | 0
GCGAATACATGGACCGGTTTTCCCGGTAATCCGTATTTGCT (site GCGAAGACTAG) | 0
GCGAATACATGGACCGGTTTTCCCGGTAATCCGTATTTGCT (site GCGAATACTAG) | 0
GCGAATGCATGGACCGGTTTTCCCGGTAATCCGTATTTGGA (site GCGAATGCTTC) | 1.42
GCGACGCCATGGACCGGTTTTCCCGGTAATCCGTATTTGGG (site GCGAAGCCTCC) | 0.0164
GCGACGCCATGGACCGGTTTTCCCGGTAATCCGTATTTGGG (site GCGACGCCTCC) | 0.00484
GCGACGCCATGGACCGGTTTTCCCGGTAATCCGTATTTGGG (site GCGAGGCCTCC) | 0.0192
GCGACGCCATGGACCGGTTTTCCCGGTAATCCGTATTTGGG (site GCGATGCCTCC) | 0.00415
GCGATAACATGGACCGGTTTTCCCGGTAATCCGTATTTGCT (site GCGAAAACTAG) | 0
GCGATAACATGGACCGGTTTTCCCGGTAATCCGTATTTGCT (site GCGACAACTAG) | 0.00488
GCGATAACATGGACCGGTTTTCCCGGTAATCCGTATTTGCT (site GCGAGAACTAG) | 0
GCGATAACATGGACCGGTTTTCCCGGTAATCCGTATTTGCT (site GCGATAACTAG) | 2.43
GCGATACCATGGACCGGTTTTCCCGGTAATCCGTATTTGAT (site GCGATACCTAT) | 0
GCGATTCCATGGACCGGTTTTCCCGGTAATCCGTATTTGTA (site GCGATTCCTTA) | 1.49
GCGCATGCATGGACCGGTTTTCCCGGTAATCCGTATTTGGT (site GAGCATGCTAC) | 0.595
GCGCATGCATGGACCGGTTTTCCCGGTAATCCGTATTTGGT (site GCGCATGCTAC) | 1.14
GCGCATGCATGGACCGGTTTTCCCGGTAATCCGTATTTGGT (site GGGCATGCTAC) | 0.0133
GCGCATGCATGGACCGGTTTTCCCGGTAATCCGTATTTGGT (site GTGCATGCTAC) | 0.622
GCGCCTCCATGGACCGGTTTTCCCGGTAATCCGTATTTGGG (site GCGCCTCCTCC) | 0.0195
GCGCGCTCATGGACCGGTTTTCCCGGTAATCCGTATTTGAA (site GCGCGCTCTTT) | 1.82

Sequence | recombinant UMI read abundance (log10)
GCGCTCACATGGACCGGTTTTCCCGGTAATCCGTATTTGCC (site GCGCTCACTGG) | 2.47
GCGGACACATGGACCGGTTTTCCCGGTAATCCGTATTTGCT (site GCGGACACTAG) | 2.44
GCGGAGGCATGGACCGGTTTTCCCGGTAATCCGTATTTGTG (site GAGGAGGCTCA) | 0.367
GCGGAGGCATGGACCGGTTTTCCCGGTAATCCGTATTTGTG (site GCGGAGGCTCA) | 1.37
GCGGAGGCATGGACCGGTTTTCCCGGTAATCCGTATTTGTG (site GGGGAGGCTCA) | 0.333
GCGGAGGCATGGACCGGTTTTCCCGGTAATCCGTATTTGTG (site GTGGAGGCTCA) | 0.832
GCGGCATCATGGACCGGTTTTCCCGGTAATCCGTATTTGTC (site GCGGCATCTGA) | 2.21
GCGGGCGCATGGACCGGTTTTCCCGGTAATCCGTATTTGAT (site GCGGGCGCTAT) | 1.44
GCGGGTGCATGGACCGGTTTTCCCGGTAATCCGTATTTGCC (site GCGGGTGCTGG) | 1.43
GCGGTTCCATGGACCGGTTTTCCCGGTAATCCGTATTTGTC (site GCGGTTCCTGA) | 0
GCGTAGGCATGGACCGGTTTTCCCGGTAATCCGTATTTGCT (site GCGTAGGCTAG) | 2.51
GCGTCAACATGGACCGGTTTTCCCGGTAATCCGTATTTGCG (site GCGTCAACTCG) | 0.00614
GCGTCGTCATGGACCGGTTTTCCCGGTAATCCGTATTTGTT (site GCGTCGTCTAA) | 0.947
GCTACCTCATGGACCGGTTTTCCCGGTAATCCGTATTTGTC (site GCTACCTCTGA) | 2.17
GCTACGCCATGGACCGGTTTTCCCGGTAATCCGTATTTGTA (site GCAACGCCTTA) | 0.00895
GCTACGCCATGGACCGGTTTTCCCGGTAATCCGTATTTGTA (site GCCACGCCTTA) | 0.0278
GCTACGCCATGGACCGGTTTTCCCGGTAATCCGTATTTGTA (site GCGACGCCTTA) | 0.162
GCTACGCCATGGACCGGTTTTCCCGGTAATCCGTATTTGTA (site GCTACGCCTTA) | 0.343
GCTACTCCATGGACCGGTTTTCCCGGTAATCCGTATTTGCC (site GCTACTACTGG) | 0
GCTACTCCATGGACCGGTTTTCCCGGTAATCCGTATTTGCC (site GCTACTCCTGG) | 0
GCTACTCCATGGACCGGTTTTCCCGGTAATCCGTATTTGCC (site GCTACTGCTGG) | 0
GCTACTCCATGGACCGGTTTTCCCGGTAATCCGTATTTGCC (site GCTACTTCTGG) | 0.0501
GCTACTGCATGGACCGGTTTTCCCGGTAATCCGTATTTGGC (site GCTACTGCTGA) | 0.76

Sequence | recombinant UMI read abundance (log10)
GCTACTGCATGGACCGGTTTTCCCGGTAATCCGTATTTGGC (site GCTACTGCTGC) | 1.92
GCTACTGCATGGACCGGTTTTCCCGGTAATCCGTATTTGGC (site GCTACTGCTGG) | 0
GCTACTGCATGGACCGGTTTTCCCGGTAATCCGTATTTGGC (site GCTACTGCTGT) | 1.54
GCTAGAACATGGACCGGTTTTCCCGGTAATCCGTATTTGGC (site GATAGAACTGC) | 0
GCTAGAACATGGACCGGTTTTCCCGGTAATCCGTATTTGGC (site GCTAGAACTGC) | 2.02
GCTAGAACATGGACCGGTTTTCCCGGTAATCCGTATTTGGC (site GGTAGAACTGC) | 0
GCTAGAACATGGACCGGTTTTCCCGGTAATCCGTATTTGGC (site GTTAGAACTGC) | 0
GCTAGCACATGGACCGGTTTTCCCGGTAATCCGTATTTGCT (site GCTAGCACTAG) | 1.64
GCTAGTGCATGGACCGGTTTTCCCGGTAATCCGTATTTGCC (site GCTAATGCTGG) | 0
GCTAGTGCATGGACCGGTTTTCCCGGTAATCCGTATTTGCC (site GCTACTGCTGG) | 0
GCTAGTGCATGGACCGGTTTTCCCGGTAATCCGTATTTGCC (site GCTAGTGCTGG) | 1.86
GCTAGTGCATGGACCGGTTTTCCCGGTAATCCGTATTTGCC (site GCTATTGCTGG) | 0
GCTATCACATGGACCGGTTTTCCCGGTAATCCGTATTTGGG (site GCTATCACTCC) | 0.147
GCTATTGCATGGACCGGTTTTCCCGGTAATCCGTATTTGCC (site GCTAATGCTGG) | 0
GCTATTGCATGGACCGGTTTTCCCGGTAATCCGTATTTGCC (site GCTACTGCTGG) | 0
GCTATTGCATGGACCGGTTTTCCCGGTAATCCGTATTTGCC (site GCTAGTGCTGG) | 0.00747
GCTATTGCATGGACCGGTTTTCCCGGTAATCCGTATTTGCC (site GCTATTGCTGG) | 0.891
GCTCACCCATGGACCGGTTTTCCCGGTAATCCGTATTTGCT (site GCTCACCCTAG) | 0
GCTCATTCATGGACCGGTTTTCCCGGTAATCCGTATTTGAG (site GCTCATTCTCT) | 1.39
GCTCGCGCATGGACCGGTTTTCCCGGTAATCCGTATTTGTG (site GCTCGCGCTCA) | 0.397
GCTCGTCCATGGACCGGTTTTCCCGGTAATCCGTATTTGGG (site GCTCGTCCTCC) | 0.0164
GCTCTATCATGGACCGGTTTTCCCGGTAATCCGTATTTGCT (site GCTCTATCTAG) | 2.04
